Data from the NIST ThermoML archive (doi:10.1021/je901085t).

Assays:
[1] = wn = mass fraction of the nth substance listed; details: Capillary rise
[2] = Capillary rise

CC(F)F [1,1-difluoroethane] + CCC
[1]
Details	surface tension liquid-gas [mN/m]
248.15 K, w2 = 0.3497	14.65
248.24 K, w2 = 0.2008	15.35
248.37 K, w2 = 0.4922	13.88
253.14 K, w2 = 0.3497	13.96
253.15 K, w2 = 0.4922	13.25
253.19 K, w2 = 0.2008	14.7
258.1 K, w2 = 0.3497	13.22
258.1 K, w2 = 0.4922	12.55
258.15 K, w2 = 0.2008	14.02
263.1 K, w2 = 0.3497	12.43
263.18 K, w2 = 0.4922	11.93
263.19 K, w2 = 0.2008	13.32
268.13 K, w2 = 0.3497	11.85
268.16 K, w2 = 0.4922	11.19
268.19 K, w2 = 0.2008	12.72
273.08 K, w2 = 0.4922	10.49
273.15 K, w2 = 0.3497	11.2
273.19 K, w2 = 0.2008	12.04
278.16 K, w2 = 0.3497	10.31
278.18 K, w2 = 0.2008	11.35
278.18 K, w2 = 0.4922	9.895
283.16 K, w2 = 0.2008	10.48
283.16 K, w2 = 0.3497	9.754
283.18 K, w2 = 0.4922	9.111
288.15 K, w2 = 0.3497	9.186
288.17 K, w2 = 0.4922	8.51
288.18 K, w2 = 0.2008	9.752
293.13 K, w2 = 0.3497	8.519
293.16 K, w2 = 0.2008	9.136
293.16 K, w2 = 0.4922	7.919
298.1 K, w2 = 0.2008	8.465
298.1 K, w2 = 0.3497	7.79
298.15 K, w2 = 0.4922	7.255
303.15 K, w2 = 0.3497	6.986
303.18 K, w2 = 0.2008	7.708
303.2 K, w2 = 0.4922	6.616
308.11 K, w2 = 0.2008	7.125
308.11 K, w2 = 0.3497	6.317
308.46 K, w2 = 0.4922	5.985
313.16 K, w2 = 0.4922	5.421
313.18 K, w2 = 0.3497	5.675
313.19 K, w2 = 0.2008	6.518
318.13 K, w2 = 0.3497	5.133
318.14 K, w2 = 0.2008	5.897
318.14 K, w2 = 0.4922	4.913
323.16 K, w2 = 0.3497	4.602
323.17 K, w2 = 0.4922	4.269
323.18 K, w2 = 0.2008	5.202
328.12 K, w2 = 0.2008	4.614
328.12 K, w2 = 0.3497	3.958
328.15 K, w2 = 0.4922	3.789

CCC [propane]
[2]
Details	surface tension liquid-gas [mN/m]
283.16 K	8.811
288.17 K	8.134
293.13 K	7.568
298.1 K	6.915
303.12 K	6.349
